Test system: lesions of telangiectatic melasma
Source text: As is known, the increase in pigmentation occurs to a greater extent during the day, wherein the action of the light is an important causal factor.

SMILES: Brc1c(NC2=NCCN2)ccc2nccnc12 [brimonidine]
- duration of effects in minimising the deterioration brought about by sunlight (applied in the morning): up to 9 hours
- improvement of the lesions of telangiectatic melasma (topical, following a period of 30 to 60 minutes from application): immediate and obvious improvement
- improvement in the hyperpigmentation of the skin of the melasma lesions (topical, minutes following application, patient (FIGS. 1-4)): effective improvement in the hyperpigmentation

Reference: US10744135B2, “Use of an active substance in the treatment of melasma” (priority 2016, dated 2020)
